Measured values reported in patent EP1289507B1, “USE OF AN ALDOSTERONE ANTAGONIST FOR THE TREATMENT OR PROPHYLAXIS OF ALDOSTERONE-MEDIATED PATHOGENIC EFFECTS” (priority 2000, dated 2001).
Like-named read-outs stand apart in the source and are kept apart here.

Key:
[1] = tested on: captopril-treated, saline-drinking SHRSP; experiment: Protocol 2: Angiotensin II-induced renal damage in captopril-treated saline-drinking SHRSP; assay type: in vivo, male SHRSP/A3N
Method: Animals. Studies were conducted in accordance with institutional guidelines using male SHRSP/A3N (generations F-75 to F-78), n = 37, from our local colony. These animals were bred from NIH stock, derived from the SHRSP/A3N substrain described originally by Okamoto and coworkers (Okamoto K et al. Circ. Res. 34 and 35 (suppl I):I-143-I-153.). All animals were housed in a room maintained on a 12:12-h light:dark-cycle and an ambient temperature of 22 ± 1°C in the Animal Care Facility at New York Medical College. Rats were weaned at 4 weeks of age and allowed free access to Purina Lab Chow 5001 (Ralston Purina, St. Louis, MO) and tap water until the initiation of experimental protocols.
SHRSP were placed on Stroke-Prone Rodent Diet (#39-288, Zeigler Bros Inc., Gardners, PA) and 1% NaCl drinking solution ad libitum starting at 8.3 weeks of age. […] Animals were handled and weighed daily. Urine samples were collected for the assessment of proteinuria. Systolic blood pressure and heart rate were measured each week. After 2 weeks of treatment, animals were decapitated, trunk blood was collected into chilled EDTA tubes, and the kidneys were removed, blotted dry, and immediately weighed. Coronal sections of kidney were fixed and later processed for light microscopic evaluation.
Assays and Analyses. Systolic blood pressure and heart rate of awake animals were measured by tail-cuff plethysmography using a Natsume KN-210 manometer and tachometer (Peninsula Laboratories Inc., Belmont, CA). Rats were warmed at 37°C for 10 min and allowed to rest quietly in a Lucite chamber before measurement of blood pressure. Measurements of urine volume were made gravimetrically. Urinary protein concentration was determined by the sulfosalicylic acid turbidity method. Plasma aldosterone was measured by radioimmunoassay using ^125I-aldosterone as a tracer (Coat-a Count Aldosterone, Diagnostic Products Co., Los Angeles, CA).
Histology. Kidneys were preserved in 10% phosphate-buffered formalin. Coronal sections (2-3 µm) were stained with hematoxylin and eosin and examined by light microscopy in a blinded fashion as previously described (Stier CT et al. J Pharmacol Exp Ther (1992) 260:1410-1415). Glomerular damage was categorized as ischemic or thrombotic. Ischemic lesions were defined as retraction of glomerular capillary tufts with or without appreciable mesangiolysis. Glomerular thrombotic lesions were defined as any one of a combination of the following: segmental to global fibrinoid necrosis, focal thrombosis of glomerular capillaries, swelling and proliferation of intracapillary (endothelial and mesangial) and/or extracapillary cells (crescents), and expansion of reticulated mesangial matrix with or without significant hypercellularity. […] Vascular thrombotic lesions were defined as any one or a combination of the following: mural fibrinoid necrosis, extravasation and fragmentation of red blood cells, and luminal and/or mural thrombosis. Proliferative arteriopathy was characterized by proliferation of markedly swollen myointimal cells with swollen round to ovoid vesicular nuclei surrounded by mucinous extracellular matrix ("onion skinning") often resulting in nodular thickening. Vascular damage was expressed as the number of arteries and arterioles with lesions per 100 glomeruli. The presence of casts and tubular (ischemic) retraction and simplification was assessed semiquantitatively.
Statistical Analysis. Significant effects with respect to treatment and time were determined by two-way analysis of variance. Data with only one grouping variable were analyzed statistically by Student's unpaired t tests. When more than two groups were compared, one-way analysis of variance was performed followed by the post-hoc Newman-Keul's multiple comparison test. Data were analyzed using version 2.01 of the GraphPad Prism statistical software package (GraphPad Software Inc., San Diego, CA). P < .05 was considered statistically significant. Data are reported as mean ± SEM.

[2] = Physical stability of solid state forms; assay type: physicochemical; details: at temperatures below the enantiotropic transition temperature
[3] = tested on: patients with severe heart failure; details: added to ACE inhibitor plus loop diuretic; cited from earlier work
[4] = tested on: patients with hypertension; experiment: Clinical efficacy in hypertension: randomized double-blind study, cuff and ambulatory blood pressure; assay type: in vivo; details: 100 mg/day (50 BID)
Method: A multicenter, randomized, double-blind, parallel group study was conducted in patients with hypertension. […] The study consisted of a two-week pretreatment period for completion of screening procedures and discontinuation of any current antihypertensive medication(s). The screening period was followed by a four-week single-blind placebo lead-in treatment period.
The primary efficacy measure was the change from baseline in cuff diastolic blood pressure measured at trough as compared to placebo. Secondary efficacy measures included changes in cuff assessed trough systolic blood pressure and changes in average 24-hour diastolic and systolic blood pressure assessed by ambulatory blood pressure monitoring. Safety was assessed by conducting routine clinical lab tests, physical exams, ECGs, and monitoring for adverse events.

[5] = tested on: Volume Expanded Hypertensive Rats; details: averaged for 24 hours after three weeks
[6] = tested on: patients with severe heart failure; details: NYHA Functional Class IV, enalapril plus diuretics compared to placebo plus diuretics; cited from earlier work

In the case of `C[C@H](CS)C(=O)N1CCC[C@H]1C(=O)O` [Captopril, captopril, reference compound], the “Glomerular damage, Ischemic” value ([1]; Captopril 50 mg/kg/d + vehicle, or CAP, Angiotensin II 25 ng/min + Eplerenone 100 mg/kg/d, 2 weeks) is reported as 0 ± 0 lesions/100 glomeruli, the “Glomerular damage, Thrombotic” value ([1]; as Table A-8B, 2 weeks) is reported as 0±0 lesions/100 glomeruli and the “Glomerular damage, Total” value ([1]; as Table A-8B, 2 weeks) is reported as 0±0 lesions/100 glomeruli. The “Renal arteriopathy, Proliferative” value ([1]; as Table A-8B, 2 weeks) was 0±0 lesions/100 glomeruli, the “Renal arteriopathy, Thrombotic” value ([1]; as Table A-8B, 2 weeks) was 0±0 lesions/100 glomeruli and the “Renal arteriopathy, Total” value ([1]; as Table A-8B, 2 weeks) was 0±0 lesions/100 glomeruli. For the same molecule, the “tubules with ischemic retraction and simplification” value ([1]; captopril plus vehicle, or captopril plus angiotensin II plus eplerenone) was “absent”.

In the case of `COC(=O)[C@@H]1CC2=CC(=O)CC[C@]2(C)[C@@]23O[C@@H]2C[C@@]2(C)[C@@H](CC[C@@]24CCC(=O)O4)[C@H]13` [Form L], the “physical stability relative to Form H” value [2] is reported as “greater physical stability”.

In the case of `CC(=O)S[C@@H]1CC2=CC(=O)CC[C@]2(C)[C@H]2CC[C@@]3(C)[C@@H](CC[C@@]34CCC(=O)O4)[C@H]12` [Spironolactone, spironolactone, reference compound], the morbidity and mortality [3] is listed as “reduced morbidity and mortality”, the “ABPM DBP, adjusted mean change from baseline to final visit” value [4] is listed as -8.7 mm Hg and the “ABPM SBP, adjusted mean change from baseline to final visit” value [4] is listed as -15.8 mm Hg. The “Cuff DBP, adjusted mean change from baseline to final visit” value [4] was -9.5 mm Hg, the “Cuff SBP, adjusted mean change from baseline to final visit” value [4] was -16.7 mm Hg and the SAP ([5]; 100 mg/kg s.c.) was 171 ± 5 mmHg. The SAP ([5]; 200 mg/kg s.c.) was 170 ± 9 mmHg.

For `CCOC(=O)[C@H](CCc1ccccc1)N[C@@H](C)C(=O)N1CCC[C@H]1C(=O)O` [enalapril], the “reduction of mortality at one year” value [6] is listed as 31%.
